Results from patent US8859569B2, “Substituted annellated pyrimidines and use thereof” (Bayer Pharma Aktiengesellschaft, priority 2011, dated 2014).

Experiments:
[1] = molecular target: T1, human phosphodiesterase 5 (PDE-5) (Homo sapiens, UniProt O76074); experiment: Inhibition of human phosphodiesterase 5 (PDE-5), SPA assay; format: biochemical; conditions: PDE-5 preparation from human platelets, [8-3H]cGMP substrate
T1 construct: PDE-5 preparations are obtained from human platelets by lysis; from tissue; host or cells: human platelets
How it was run: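 Scintillation proximity read-out with yttrium beads after 60 min room-temperature hydrolysis of 0.025 μCi [8-3H]cGMP, pH 7.5 Tris/MgCl2/EDTA buffer. Enzyme is a human platelet PDE-5 fraction, diluted to keep substrate turnover below 70%. Test concentrations 4 μM–0.0018 μM final; IC50 from inhibition curves.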

aorta rings = experiment: Vessel-relaxing action in vitro (aorta rings, phenylephrine contraction); conditions: Oryctolagus cuniculus, concentration required to reduce phenylephrine-induced contraction of rabbit aorta rings by 50%
How it was run: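 Rabbit aortic rings 1.5 mm wide were held under preload in carbogen-gassed Krebs-Henseleit at 37 °C and contracted with cumulative phenylephrine. Test substance was added in rising doses on successive passes, each compared with the preceding control contraction. IC50 is the concentration that halves contraction, with 0.1% DMSO in the bath.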

[2] = molecular target: T2, recombinant guanylate cyclase reporter cell line (Rattus norvegicus, UniProt P19686+P20595); experiment: Action on recombinant guanylate cyclase reporter cell line; format: cell-based
T2 construct: expressed in transfected cells
T2 sequence (P20595 1-619): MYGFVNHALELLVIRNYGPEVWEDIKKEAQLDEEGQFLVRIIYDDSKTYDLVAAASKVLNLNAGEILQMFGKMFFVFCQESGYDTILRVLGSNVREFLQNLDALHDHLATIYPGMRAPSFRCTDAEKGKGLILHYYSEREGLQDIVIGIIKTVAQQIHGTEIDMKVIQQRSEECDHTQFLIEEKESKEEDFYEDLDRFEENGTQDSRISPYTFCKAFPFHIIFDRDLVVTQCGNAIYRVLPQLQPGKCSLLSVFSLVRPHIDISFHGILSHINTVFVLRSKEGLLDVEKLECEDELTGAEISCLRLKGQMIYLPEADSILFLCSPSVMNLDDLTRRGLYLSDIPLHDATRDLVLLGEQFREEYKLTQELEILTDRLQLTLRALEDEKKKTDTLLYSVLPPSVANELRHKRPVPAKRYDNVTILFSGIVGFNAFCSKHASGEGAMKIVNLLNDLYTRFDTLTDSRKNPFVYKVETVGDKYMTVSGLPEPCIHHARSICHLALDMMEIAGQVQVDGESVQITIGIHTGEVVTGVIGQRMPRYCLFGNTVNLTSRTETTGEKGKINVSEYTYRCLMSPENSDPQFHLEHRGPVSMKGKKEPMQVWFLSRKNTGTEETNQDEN
T2 sequence (P19686 1-690): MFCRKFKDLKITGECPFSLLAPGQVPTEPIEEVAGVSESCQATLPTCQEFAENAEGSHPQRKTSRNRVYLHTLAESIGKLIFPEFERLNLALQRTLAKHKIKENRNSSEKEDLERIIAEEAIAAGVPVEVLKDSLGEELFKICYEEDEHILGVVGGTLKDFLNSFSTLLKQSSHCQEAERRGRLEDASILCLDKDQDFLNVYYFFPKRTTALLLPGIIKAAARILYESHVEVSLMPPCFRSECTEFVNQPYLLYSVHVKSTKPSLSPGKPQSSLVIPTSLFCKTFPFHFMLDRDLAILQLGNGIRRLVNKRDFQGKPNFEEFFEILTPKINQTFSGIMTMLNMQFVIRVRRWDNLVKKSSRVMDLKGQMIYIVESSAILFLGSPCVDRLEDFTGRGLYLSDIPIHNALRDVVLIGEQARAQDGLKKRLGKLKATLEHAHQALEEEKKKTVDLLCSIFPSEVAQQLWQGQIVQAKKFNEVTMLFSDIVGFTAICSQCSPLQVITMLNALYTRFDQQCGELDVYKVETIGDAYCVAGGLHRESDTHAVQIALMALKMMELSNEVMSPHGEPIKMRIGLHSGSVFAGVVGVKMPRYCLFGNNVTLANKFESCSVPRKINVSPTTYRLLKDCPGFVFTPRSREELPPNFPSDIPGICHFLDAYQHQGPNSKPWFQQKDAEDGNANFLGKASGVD
Method: B-2. Action on Recombinant Guanylate Cyclase Reporter Cell Line
The cellular action of the compounds according to the invention is determined on a recombinant guanylate cyclase reporter cell line, as described in F. Wunder et al., Anal. Biochem. 339, 104-112 (2005).

Q: Which results are given for CC1(C)C(=O)Nc2nc(-c3nn(Cc4ccccc4F)c4ncccc34)nc(N3CCC(N)C3)c21 (racemic) [Example 106, 4-(3-Aminopyrrolidin-1-yl)-2-[1-(2-fluorobenzyl)-1H-pyrazolo[3,4-b]pyridin-3-yl]-5,5-dimethyl-5,7-dihydro-6H-pyrrolo[2,3-d]pyrimidin-6-one]?
A: IC50 [1]: 12 nM; IC50 (aorta rings): 1450 nM; MEC (minimal effective concentration) [2]: 1 μm

Q: CCOc1nc(-c2nn(Cc3ccccc3F)c3ncccc23)nc2c1C(C)(C)C(=O)N2 [Example 112, 4-Ethoxy-2-[1-(2-fluorobenzyl)-1H-pyrazolo[3,4-b]pyridin-3-yl]-5,5-dimethyl-5,7-dihydro-6H-pyrrolo[2,3-d]pyrimidin-6-one] was tested. Which IC50 [1] did it give?
A: 210 nM

Q: And the IC50 (aorta rings)?
A: 1620 nM

Q: What about the “MEC (minimal effective concentration)” value [2] of the same molecule?
A: 0.1 μm

Q: With CCCOc1nc(-c2nn(Cc3ccccc3F)c3ncccc23)nc2c1C(C)(C)C(=O)N2 [Example 111, 2-[1-(2-Fluorobenzyl)-1H-pyrazolo[3,4-b]pyridin-3-yl]-5,5-dimethyl-4-propoxy-5,7-dihydro-6H-pyrrolo[2,3-d]pyrimidin-6-one] as the molecule, how does the IC50 [1] read?
A: 320 nM

Q: And the IC50 (aorta rings)?
A: 1620 nM

Q: And the “MEC (minimal effective concentration)” value [2]?
A: 0.3 μm

Q: How did the IC50 [1] turn out when CC1(C)C(=O)Nc2nc(-n3nc(Cc4ccccc4F)c4ccccc43)nc(NCCC(F)(F)F)c21 [Example 35, 2-[3-(2-Fluorobenzyl)-1H-indazol-1-yl]-5,5-dimethyl-4-[(3,3,3-trifluoropropyl)amino]-5,7-dihydro-6H-pyrrolo[2,3-d]pyrimidin-6-one] was run?
A: 110 nM

Q: What about the IC50 (aorta rings) of the same molecule?
A: > 10000 nM

Q: What about the “MEC (minimal effective concentration)” value [2] of the same molecule?
A: 0.3 μm

Q: For CC1(C)C(=O)Nc2nc(-n3nc(Cc4ccccc4F)c4cc(F)ccc43)nc(OCCC(F)(F)F)c21 [Example 34, 2-[5-Fluoro-3-(2-fluorobenzyl)-1H-indazol-1-yl]-5,5-dimethyl-4-(3,3,3-trifluoropropoxy)-5,7-dihydro-6H-pyrrolo[2,3-d]pyrimidin-6-one], which IC50 [1] is on record?
A: 550 nM

Q: And the IC50 (aorta rings)?
A: 6150 nM

Q: And the “MEC (minimal effective concentration)” value [2]?
A: 1.0 μm

Q: For CC(O)c1ccn(-c2nc(-c3nn(Cc4ccccc4F)c4ncccc34)nc3c2C(C)(C)C(=O)N3)n1 (stereo not drawn) [Example 28, 2-[1-(2-Fluorobenzyl)-1H-pyrazolo[3,4-b]pyridin-3-yl]-4-[3-(1-hydroxyethyl)-1H-pyrazol-1-yl]-5,5-dimethyl-5,7-dihydro-6H-pyrrolo[2,3-d]pyrimidin-6-one], which IC50 [1] is on record?
A: 110 nM

Q: And the IC50 (aorta rings)?
A: 98 nM

Q: What about the “MEC (minimal effective concentration)” value [2] of the same molecule?
A: 0.3 μm

Q: What does the source list for CC1(C)C(=O)Nc2nc(-c3nn(Cc4ccccc4F)c4ncccc34)nc(-n3cc(O)cn3)c21 [Example 26, 2-[1-(2-Fluorobenzyl)-1H-pyrazolo[3,4-b]pyridin-3-yl]-4-(4-hydroxy-1H-pyrazol-1-yl)-5,5-dimethyl-5,7-dihydro-6H-pyrrolo[2,3-d]pyrimidin-6-one]?
A: IC50 [1]: 12 nM; IC50 (aorta rings): 674 nM; MEC (minimal effective concentration) [2]: 0.03 μm

Q: How did the IC50 [1] turn out when CC1(C)C(=O)Nc2nc(-c3nn(Cc4ccccc4F)c4ncccc34)nc(N3CC(N)C3)c21 [Example 107, 4-(3-Aminoazetidin-1-yl)-2-[1-(2-fluorobenzyl)-1H-pyrazolo[3,4-b]pyridin-3-yl]-5,5-dimethyl-5,7-dihydro-6H-pyrrolo[2,3-d]pyrimidin-6-one] was run?
A: 100 nM

Q: What about the IC50 (aorta rings) of the same molecule?
A: 700 nM

Q: And the “MEC (minimal effective concentration)” value [2]?
A: 1 μm

Q: Which results are given for C[C@@H](Nc1nc(-c2nn(Cc3ccccc3F)c3ncc(F)cc23)nc2c1C(C)(C)C(=O)N2)C1CC1 [Example 88, 4-{[(1R)-1-Cyclopropylethyl]amino}-2-[5-fluoro-1-(2-fluorobenzyl)-1H-pyrazolo[3,4-b]pyridin-3-yl]-5,5-dimethyl-5,7-dihydro-6H-pyrrolo[2,3-d]pyrimidin-6-one]?
A: IC50 [1]: 150 nM; IC50 (aorta rings): 1670 nM; MEC (minimal effective concentration) [2]: 0.1 μm

Q: Which IC50 [1] does the source give for CC1(C)C(=O)Nc2nc(-n3nc(Cc4ccccc4F)c4cc(F)ccc43)nc(O)c21 [Example 31, 2-[5-Fluoro-3-(2-fluorobenzyl)-1H-indazol-1-yl]-4-hydroxy-5,5-dimethyl-5,7-dihydro-6H-pyrrolo[2,3-d]pyrimidin-6-one] here?
A: 500 nM

Q: And the IC50 (aorta rings)?
A: 142 nM

Q: What about the “MEC (minimal effective concentration)” value [2] of the same molecule?
A: 0.01 μm

Q: What does the source list for CC1(C)C(=O)Nc2nc(-c3nn(Cc4ncccc4F)c4ncc(F)cc34)nc(NCC(F)(F)F)c21 [Example 16, 2-{5-Fluoro-1-[(3-fluoropyridin-2-yl)methyl]-1H-pyrazolo[3,4-b]pyridin-3-yl}-5,5-dimethyl-4-[(2,2,2-trifluoroethyl)amino]-5,7-dihydro-6H-pyrrolo[2,3-d]pyrimidin-6-one]?
A: IC50 [1]: 13 nM; IC50 (aorta rings): 126 nM; MEC (minimal effective concentration) [2]: 0.1 μm
